Assay results taken from patent US20040092591A1, “Therapeutic use of fused bicyclic or tricyclic amino acids” (priority 2002, published 2004).

Molecular target: T1, α2δ subunit derived from porcine brain tissue (Sus scrofa, UniProt A0A287BIN3)
T1 construct: the α2δ subunit derived from porcine brain tissue; from tissue; host or cells: porcine brain
Test: radioligand binding assay using [3H]gabapentin and the α2δ subunit
Conditions: [3H]gabapentin radioligand
Text: The biological activity of the compounds of the invention may be measured in a radioligand binding assay using [^3H]gabapentin and the α2δ subunit derived from porcine brain tissue (Gee N. S., Brown J. P., Dissanayake V. U. K., Offord J., Thurlow R., Woodruff G. N., […] J. Biol. Chem., 1996;271:5879-[…]). Results may be expressed in terms of μM or nM α2δ binding affinity.

T1 sequence (A0A287BIN3 entry or part of it): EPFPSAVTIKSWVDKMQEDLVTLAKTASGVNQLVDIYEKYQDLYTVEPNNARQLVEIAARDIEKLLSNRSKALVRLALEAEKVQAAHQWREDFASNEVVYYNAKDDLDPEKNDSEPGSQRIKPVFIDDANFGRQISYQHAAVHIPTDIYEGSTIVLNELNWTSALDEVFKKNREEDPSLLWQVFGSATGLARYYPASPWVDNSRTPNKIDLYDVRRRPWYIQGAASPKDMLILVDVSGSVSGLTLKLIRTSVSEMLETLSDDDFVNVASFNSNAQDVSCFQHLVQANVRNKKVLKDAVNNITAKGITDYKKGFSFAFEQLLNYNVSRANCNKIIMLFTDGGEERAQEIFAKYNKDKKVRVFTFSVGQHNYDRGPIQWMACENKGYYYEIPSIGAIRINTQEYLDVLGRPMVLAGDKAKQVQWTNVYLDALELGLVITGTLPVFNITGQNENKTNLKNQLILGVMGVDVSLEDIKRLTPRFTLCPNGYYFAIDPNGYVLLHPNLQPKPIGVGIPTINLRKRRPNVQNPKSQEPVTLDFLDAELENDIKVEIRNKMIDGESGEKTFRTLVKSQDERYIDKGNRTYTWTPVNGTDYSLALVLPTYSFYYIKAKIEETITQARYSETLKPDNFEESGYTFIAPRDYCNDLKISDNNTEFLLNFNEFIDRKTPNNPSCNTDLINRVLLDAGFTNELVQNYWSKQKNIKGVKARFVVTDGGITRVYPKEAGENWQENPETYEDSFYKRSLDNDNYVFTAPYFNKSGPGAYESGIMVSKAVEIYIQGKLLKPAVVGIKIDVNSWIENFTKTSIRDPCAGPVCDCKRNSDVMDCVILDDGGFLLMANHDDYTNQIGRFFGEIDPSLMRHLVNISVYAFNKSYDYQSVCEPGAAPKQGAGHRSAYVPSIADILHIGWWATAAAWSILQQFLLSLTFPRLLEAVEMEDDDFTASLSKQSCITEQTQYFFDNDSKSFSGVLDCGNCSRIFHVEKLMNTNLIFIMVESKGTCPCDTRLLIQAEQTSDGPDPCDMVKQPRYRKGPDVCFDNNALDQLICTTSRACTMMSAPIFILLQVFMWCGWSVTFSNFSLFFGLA

SMILES: Cl.NC[C@]1(CC(=O)O)C[C@H]2CCCC[C@H]21 (racemic) [Example 4, [(1RS,6RS,7SR)-7-(Aminomethyl)bicyclo[4.2.]oct-7-yl]acetic acid hydrochloride]
- α2δ binding affinity: 600 nM

SMILES: Cl.NC[C@]1(CC(=O)O)C[C@H]2CCC[C@H]21 [Example 1, [(1R,5R,6S)-6-(Aminomethyl)bicycl[3.2.0]hept-6-yl]acetic acid hydrochloride]
- α2δ binding affinity: 46.8 nM
